ChEMBL document CHEMBL3044830, “Synthesis, characterization, antibacterial, antifungal, and immunomodulating activities of gatifloxacin derivatives” (Med Chem Res, 2010)

Key:
[1] = system: Bacillus subtilis; experiment: Antibacterial activity against Bacillus subtilis assessed as concentration required to obtain a zone of inhibition of 10 mm after 18 to 24 hr by disk diffusion method; format: functional
[2] = system: Escherichia coli; experiment: Antibacterial activity against Escherichia coli assessed as concentration required to obtain a zone of inhibition of 20 mm after 18 to 24 hr by disk diffusion method; format: functional
[3] = system: T-cell; experiment: Anti-inflammatory activity in Homo sapiens (human) T lymphocytes assessed as inhibition of PHA-induced [3H] thymidine uptake at 12.5 ug/ml incubated for 72 hr prior to [3H]thymidine addition measured after 18 hr by liquid scintillation method; format: functional
[4] = Antibacterial activity against Hofmanni bacterium assessed as concentration required to obtain a zone of inhibition of 10 mm after 18 to 24 hr by disc diffusion method
[5] = system: Bacillus subtilis; experiment: Antibacterial activity against Bacillus subtilis assessed as concentration required to obtain a zone of inhibition of 20 mm after 18 to 24 hr by disk diffusion method; format: functional
[6] = system: Fusarium solani; experiment: Antifungal activity against Fusarium solani assessed as concentration required to obtain a zone of inhibition of 20 mm after 7 days by disk diffusion method; format: functional
[7] = system: Citrobacter; experiment: Antibacterial activity against Citrobacter assessed as concentration required to obtain a zone of inhibition of 5 mm after 18 to 24 hr by disk diffusion method; format: functional
[8] = system: Trichophyton rubrum; experiment: Antifungal activity against Trichophyton rubrum assessed as concentration required to obtain a zone of inhibition of 20 mm after 7 days by disk diffusion method; format: functional
[9] = system: Fusarium solani; experiment: Antifungal activity against Fusarium solani assessed as concentration required to obtain a zone of inhibition of 40 mm after 7 days by disk diffusion method; format: functional
[10] = system: Pseudomonas aeruginosa; experiment: Antibacterial activity against Pseudomonas aeruginosa assessed as concentration required to obtain a zone of inhibition of 10 mm after 18 to 24 hr by disk diffusion method; format: functional
[11] = system: Bacillus subtilis; experiment: Antibacterial activity against Bacillus subtilis assessed as concentration required to obtain a zone of inhibition of 5 mm after 18 to 24 hr by disk diffusion method; format: functional
[12] = system: T-cell; experiment: Anti-inflammatory activity in Homo sapiens (human) T lymphocytes assessed as inhibition of PHA-induced [3H] thymidine uptake incubated for 72 hr prior to [3H]thymidine addition measured after 18 hr by liquid scintillation method; format: functional, cell-based
[13] = system: Klebsiella pneumoniae; experiment: Antibacterial activity against Klebsiella pneumoniae assessed as concentration required to obtain a zone of inhibition of 20 mm after 18 to 24 hr by disk diffusion method; format: functional
[14] = system: Klebsiella pneumoniae; experiment: Antibacterial activity against Klebsiella pneumoniae assessed as concentration required to obtain a zone of inhibition of 5 mm after 18 to 24 hr by disk diffusion method; format: functional
[15] = Antibacterial activity against Hofmanni bacterium assessed as concentration required to obtain a zone of inhibition of 20 mm after 18 to 24 hr by disc diffusion method
[16] = system: Proteus mirabilis; experiment: Antibacterial activity against Proteus mirabilis assessed as concentration required to obtain a zone of inhibition of 20 mm after 18 to 24 hr by disc diffusion method; format: functional
[17] = system: Shigella sp.; experiment: Antibacterial activity against Shigella typhi assessed as concentration required to obtain a zone of inhibition of 5 mm after 18 to 24 hr by disc diffusion method; format: functional
[18] = system: Klebsiella pneumoniae; experiment: Antibacterial activity against Klebsiella pneumoniae assessed as concentration required to obtain a zone of inhibition of 10 mm after 18 to 24 hr by disk diffusion method; format: functional
[19] = system: Candida albicans; experiment: Antifungal activity against Candida albicans assessed as concentration required to obtain a zone of inhibition of 40 mm after 7 days by disk diffusion method; format: functional
[20] = system: Blood; experiment: Antioxidant activity in Homo sapiens (human) whole blood assessed as inhibition of ROS production at 100 ug/ml after 30 min by luminol-enhanced chemiluminescence assay; format: functional; settings: 0.5 h
[21] = system: Proteus mirabilis; experiment: Antibacterial activity against Proteus mirabilis assessed as concentration required to obtain a zone of inhibition of 10 mm after 18 to 24 hr by disc diffusion method; format: functional
[22] = system: Proteus mirabilis; experiment: Antibacterial activity against Proteus mirabilis assessed as concentration required to obtain a zone of inhibition of 5 mm after 18 to 24 hr by disc diffusion method; format: functional
[23] = system: T-cell; experiment: Anti-inflammatory activity in Homo sapiens (human) T lymphocytes assessed as inhibition of PHA-induced [3H] thymidine uptake at 3.12 ug/ml incubated for 72 hr prior to [3H]thymidine addition measured after 18 hr by liquid scintillation method; format: functional
[24] = system: Pseudomonas aeruginosa; experiment: Antibacterial activity against Pseudomonas aeruginosa assessed as concentration required to obtain a zone of inhibition of 5 mm after 18 to 24 hr by disk diffusion method; format: functional
[25] = system: Citrobacter; experiment: Antibacterial activity against Citrobacter assessed as concentration required to obtain a zone of inhibition of 20 mm after 18 to 24 hr by disk diffusion method; format: functional
[26] = system: Shigella flexneri; experiment: Antibacterial activity against Shigella flexneri assessed as concentration required to obtain a zone of inhibition of 10 mm after 18 to 24 hr by disk diffusion method; format: functional
[27] = system: Pseudomonas aeruginosa; experiment: Antibacterial activity against Pseudomonas aeruginosa assessed as concentration required to obtain a zone of inhibition of 20 mm after 18 to 24 hr by disk diffusion method; format: functional
[28] = system: Candida albicans; experiment: Antifungal activity against Candida albicans assessed as concentration required to obtain a zone of inhibition of 20 mm after 7 days by disk diffusion method; format: functional
[29] = system: Shigella flexneri; experiment: Antibacterial activity against Shigella flexneri assessed as concentration required to obtain a zone of inhibition of 20 mm after 18 to 24 hr by disk diffusion method; format: functional
[30] = system: Blood; experiment: Antioxidant activity in Homo sapiens (human) whole blood assessed as inhibition of ROS production at 12.5 ug/ml after 30 min by luminol-enhanced chemiluminescence assay; format: functional; settings: 0.5 h
[31] = system: Shigella sp.; experiment: Antibacterial activity against Shigella typhi assessed as concentration required to obtain a zone of inhibition of 20 mm after 18 to 24 hr by disc diffusion method; format: functional
[32] = system: Blood; experiment: Antioxidant activity in Homo sapiens (human) whole blood assessed as inhibition of ROS production after 30 min by luminol-enhanced chemiluminescence assay; format: functional, tissue-based; settings: 0.5 h
[33] = system: Citrobacter; experiment: Antibacterial activity against Citrobacter assessed as concentration required to obtain a zone of inhibition of 10 mm after 18 to 24 hr by disk diffusion method; format: functional
[34] = system: Trichophyton rubrum; experiment: Antifungal activity against Trichophyton rubrum assessed as concentration required to obtain a zone of inhibition of 40 mm after 7 days by disk diffusion method; format: functional
[35] = system: Blood; experiment: Antioxidant activity in Homo sapiens (human) whole blood assessed as inhibition of ROS production at 50 ug/ml after 30 min by luminol-enhanced chemiluminescence assay; format: functional; settings: 0.5 h
[36] = system: Shigella flexneri; experiment: Antibacterial activity against Shigella flexneri assessed as concentration required to obtain a zone of inhibition of 5 mm after 18 to 24 hr by disk diffusion method; format: functional
[37] = system: Escherichia coli; experiment: Antibacterial activity against Escherichia coli assessed as concentration required to obtain a zone of inhibition of 5 mm after 18 to 24 hr by disk diffusion method; format: functional
[38] = system: Escherichia coli; experiment: Antibacterial activity against Escherichia coli assessed as concentration required to obtain a zone of inhibition of 10 mm after 18 to 24 hr by disk diffusion method; format: functional
[39] = system: T-cell; experiment: Anti-inflammatory activity in Homo sapiens (human) T lymphocytes assessed as inhibition of PHA-induced [3H] thymidine uptake at 50 ug/ml incubated for 72 hr prior to [3H]thymidine addition measured after 18 hr by liquid scintillation method; format: functional
[40] = Antibacterial activity against Hofmanni bacterium assessed as concentration required to obtain a zone of inhibition of 5 mm after 18 to 24 hr by disc diffusion method

COc1c(N2CCNC(C)C2)c(F)cc2c(=O)c(C(=O)O)cn(C3CC3)c12 (stereo not given) [GATIFLOXACIN]
Activity [1]: 15 µg/mL
Activity [2]: 17 µg/mL
inhibition at 12.5 µg/mL [3]: -97.9%
Activity [4]: 13 µg/mL
Activity [5]: 17 µg/mL
Activity [6]: 12 µg/mL
Activity [7]: 15 µg/mL
Activity [8]: 12 µg/mL
Activity [9]: 18 µg/mL
Activity [10]: 12 µg/mL
Activity [11]: 11 µg/mL
IC50 [12]: > 50 µg/mL
Activity [13]: 19 µg/mL
Activity [14]: 9 µg/mL
Activity [15]: 15 µg/mL
Activity [16]: 19 µg/mL
Activity [17]: 8 µg/mL
Activity [18]: 14 µg/mL
Activity [19]: 9 µg/mL
inhibition at 100 µg/mL [20]: 84.7%
Activity [21]: 15 µg/mL
Activity [22]: 9 µg/mL
inhibition at 3.12 µg/mL [23]: -71.1%
Activity [24]: 8 µg/mL
Activity [25]: 26 µg/mL
Activity [26]: 16 µg/mL
Activity [27]: 14 µg/mL
Activity [28]: 8 µg/mL
Activity [29]: 23 µg/mL
inhibition at 12.5 µg/mL [30]: 19.7%
Activity [31]: 21 µg/mL
IC50 [32]: 31 µg/mL
Activity [33]: 23 µg/mL
Activity [34]: 14 µg/mL
inhibition at 50 µg/mL [35]: 66%
Activity [36]: 9 µg/mL
Activity [37]: 7.5 µg/mL
Activity [38]: 12 µg/mL
inhibition at 50 µg/mL [39]: -25.2%
Activity [40]: 8 µg/mL
